Laboratory results taken from patent US20170298052A1, “SUBSTITUTED OXOPYRIDINE DERIVATIVES” (BAYER PHARMA AKTIENGESELLSCHAFT, priority 2014, published 2017).

Tests used:
human factor XIa = target: T1, human factor XIa (Homo sapiens, UniProt P03951); assay: Measurement of FXIa inhibition (fluorogenic peptide substrate, AMC cleavage); assay type: biochemical; conditions: factor XIa from Kordia 0.45 nM; substrate Boc-Glu(OBzl)-Ala-Arg-AMC; 30 min at 22° C.
T1 construct: purchased Kordia
Protocol: (§1) The factor XIa inhibition of the substances according to the invention is determined using a biochemical test system which utilizes the reaction of a peptidic factor XIa substrate to determine the enzymatic activity of human factor XIa. Here, factor XIa cleaves from the peptic factor XIa substrate the C-terminal aminomethylcoumarin (AMC), the fluorescence of which is measured. The determinations are carried out in microtitre plates.
1 μl of the diluted substance solutions is placed into each of the wells of white microtitre plates from Greiner (384 wells). […] After 15 min of incubation, the enzyme reaction is started by addition of 20 μl of the factor XIa substrate Boc-Glu(OBzl)-Ala-Arg-AMC dissolved in assay buffer (10 μM in assay buffer) from Bachem, the mixture is incubated at room temperature (22° C.) for 30 min and fluorescence is then measured (excitation: 360 nm, emission: 460 nm). The measured emissions of the test batches with test substance are compared to those of control batches without test substance (only dimethyl sulphoxide instead of test substance in dimethyl sulphoxide), and IC50 values are calculated from the concentration/activity relationships.

human plasma kallikrein = human plasma kallikrein (Homo sapiens, UniProt P03952); assay: Determination of the plasma kallikrein activity (fluorogenic peptide substrate, AMC cleavage); assay type: biochemical; conditions: plasma kallikrein from Kordia 0.6 nM; substrate H-Pro-Phe-Arg-AMC; 30 min at 22° C.; read-out: IC50 [nM] (Table B, plasma kallikrein inhibition)
Protocol: as §1, with “To determine the plasma kallikrein” for “The factor XIa”, “invention,” for “invention is determined using”, “system is used” for “system”, “plasma kallikrein” for “factor XIa”, “plasma kallikrein.” for “factor XIa.”
Test substances are dissolved in dimethyl sulphoxide and serially diluted in dimethyl sulphoxide (3000 μM to 0.0078 μM; resulting final concentrations in the test: 50 μM to 0.00013 μM). 1 μl of the diluted substance solutions is placed into each of the wells of white microtitre plates from Greiner (384 wells). 20 μl of assay buffer (50 mM Tris/HCl pH 7.4; 100 mM sodium chloride solution; 5 mM of calcium chloride solution; 0.1% of bovine serum albumin) and 20 μl of plasma kallikrein from Kordia (0.6 nM in assay buffer) are then added successively. After 15 min of incubation, the enzyme reaction is started by addition of 20 μl of the substrate H-Pro-Phe-Arg-AMC dissolved in assay buffer (10 μM in assay buffer) from Bachem, the mixture is incubated at room temperature (22° C.) for 30 min and fluorescence is then measured (excitation: 360 nm, emission: 460 nm). The measured emissions of the test batches with test substance are compared to those of control batches without test substance (only dimethyl sulphoxide instead of test substance in dimethyl sulphoxide), and IC50 values are calculated from the concentration/activity relationships.

T1 sequence (P03951 388-625 limits assumed): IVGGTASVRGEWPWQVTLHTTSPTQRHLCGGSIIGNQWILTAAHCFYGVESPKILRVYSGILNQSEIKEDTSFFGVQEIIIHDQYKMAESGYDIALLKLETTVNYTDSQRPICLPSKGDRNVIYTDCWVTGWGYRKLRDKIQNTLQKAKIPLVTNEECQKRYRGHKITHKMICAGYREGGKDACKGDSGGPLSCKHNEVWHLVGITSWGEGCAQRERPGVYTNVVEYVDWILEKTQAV
T1 sequence (P03951 19-387 partner limits assumed): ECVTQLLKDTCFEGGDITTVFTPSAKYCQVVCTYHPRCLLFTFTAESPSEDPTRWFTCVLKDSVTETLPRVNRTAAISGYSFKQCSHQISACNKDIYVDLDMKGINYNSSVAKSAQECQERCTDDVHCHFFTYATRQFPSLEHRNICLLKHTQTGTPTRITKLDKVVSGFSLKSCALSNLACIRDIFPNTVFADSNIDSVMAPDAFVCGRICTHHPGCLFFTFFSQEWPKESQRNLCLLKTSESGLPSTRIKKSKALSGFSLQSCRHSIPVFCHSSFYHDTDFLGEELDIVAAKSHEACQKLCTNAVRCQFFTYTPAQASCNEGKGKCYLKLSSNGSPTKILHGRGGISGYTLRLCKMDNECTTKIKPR
human plasma kallikrein, sequence (P03952 391-638 limits assumed): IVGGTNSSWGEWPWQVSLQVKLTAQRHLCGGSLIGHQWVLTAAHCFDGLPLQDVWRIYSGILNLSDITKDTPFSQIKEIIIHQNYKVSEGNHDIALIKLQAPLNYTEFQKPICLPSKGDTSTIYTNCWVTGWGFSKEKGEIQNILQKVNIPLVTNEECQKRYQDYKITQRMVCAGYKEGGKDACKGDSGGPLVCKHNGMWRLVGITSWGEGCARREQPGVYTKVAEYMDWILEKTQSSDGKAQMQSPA
human plasma kallikrein, sequence (P03952 20-390 partner limits assumed): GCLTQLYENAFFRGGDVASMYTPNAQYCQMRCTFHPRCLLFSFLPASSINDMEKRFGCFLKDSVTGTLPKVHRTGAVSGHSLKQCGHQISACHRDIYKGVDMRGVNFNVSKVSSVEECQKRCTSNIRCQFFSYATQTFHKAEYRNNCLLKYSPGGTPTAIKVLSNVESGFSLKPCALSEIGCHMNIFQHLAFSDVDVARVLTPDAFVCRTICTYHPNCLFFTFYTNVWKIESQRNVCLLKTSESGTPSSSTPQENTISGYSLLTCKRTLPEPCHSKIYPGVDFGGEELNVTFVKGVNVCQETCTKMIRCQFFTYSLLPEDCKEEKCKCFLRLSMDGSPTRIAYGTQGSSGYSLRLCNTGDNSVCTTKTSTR

IC50 (human factor XIa)	IC50 (human plasma kallikrein)	Compound
19 nM	12 nM	CNC(=O)c1ccc(NC(=O)C(Cc2ccn(C)n2)n2cc(OC)c(-c3cc(C)ccc3C#N)cc2=O)cc1F (racemic) [Example 44, 4-({2-[4-(2-Cyano-5-methylphenyl)-5-methoxy-2-oxopyridin-1(2H)-yl]-3-(1-methyl-1H-pyrazol-3-yl)propanoyl}amino)-2-fluoro-N-methylbenzamide]
160 nM	490 nM	N#Cc1ccc(Cl)cc1-c1cc(=O)n(C(Cc2ccccn2)C(=O)Nc2ccc(C(N)=O)c(F)c2)cc1OC(F)F (stereo not shown) [Example 11]
47 nM	110 nM	COCCC(C(=O)Nc1ccc(C(N)=O)c(F)c1)n1cc(Cl)c(-c2cc(Cl)ccc2C#N)cc1=O (stereo not shown) [Example 6]
200 nM	350 nM	COc1cn(C(Cc2cc(C)no2)C(=O)Nc2ccc(C(N)=O)c(F)c2)c(=O)cc1-c1cc(Cl)ccc1F (stereo not shown) [Example 16]
6.2 nM	3.6 nM	COc1cn(C(Cc2ccn(C)n2)C(=O)Nc2ccc(C(N)=O)c(F)c2)c(=O)cc1-c1cc(Cl)ccc1C#N (racemic) [Example 38, 4-({2-[4-(5-Chloro-2-cyanophenyl)-5-methoxy-2-oxopyridin-1(2H)-yl]-3-(1-methyl-1H-pyrazol-3-yl)propanoyl}amino)-2-fluorobenzamide]
28 nM	27 nM	COCCC(C(=O)Nc1ccc(C(N)=O)c(F)c1)n1cc(OC)c(-c2cc(C)ccc2C#N)cc1=O (racemic) [Example 49, 4-({2-[4-(2-Cyano-5-methylphenyl)-5-methoxy-2-oxopyridin-1(2H)-yl]-4-methoxybutanoyl}amino)-2-fluorobenzamide]
11 nM	6 nM	COc1cn(C(Cc2cccnc2)C(=O)Nc2ccc(C(N)=O)c(F)c2)c(=O)cc1-c1cc(Cl)ccc1C#N (stereo not shown) [Example 9]
310 nM	160 nM	COCCC(C(=O)Nc1ccc(C(N)=O)c(F)c1)n1cc(OC)c(-c2cc(Cl)c(F)cc2C#N)cc1=O (racemic) [Example 25, 4-({2-[4-(5-Chloro-2-cyano-4-fluorophenyl)-5-methoxy-2-oxopyridin-1(2H)-yl]-4-methoxy-butanoyl}amino)-2-fluorobenzamide]
27 nM	25 nM	COCCC(C(=O)Nc1ccc(C(N)=O)c(F)c1)n1cc(OC)c(-c2cc(C)ccc2C#N)cc1=O (single isomer, unassigned) [Example 24, 4-({2-[4-(2-Cyano-5-methylphenyl)-5-methoxy-2-oxopyridin-1(2H)-yl]-4-methoxybutanoyl}amino)-2-fluorobenzamide]
5.1 nM	2.7 nM	COc1cn(C(Cc2ccncc2)C(=O)Nc2ccc(C(N)=O)c(F)c2)c(=O)cc1-c1cc(Cl)ccc1C#N (single isomer, unassigned) [Example 29, 4-({2-[4-(5-Chloro-2-cyanophenyl)-5-methoxy-2-oxopyridin-1(2H)-yl]-3-(pyridin-4-yl)propanoyl}amino)-2-fluorobenzamide]

Continued, compound first:

Compound	IC50 (human factor XIa)	IC50 (human plasma kallikrein)
CCC(C(=O)Nc1ccc(C(=O)NC)c(Cl)c1)n1cc(OC)c(-c2cc(Cl)ccc2C#N)cc1=O (racemic) [Example 27, 2-Chloro-4-({2-[4-(5-chloro-2-cyanophenyl)-5-methoxy-2-oxopyridin-1(2H)-yl]butanoyl}amino)-N-methylbenzamide]	50 nM	71 nM
COc1cn(C(Cc2nnc(C3CC3)o2)C(=O)Nc2ccc(C(N)=O)c(F)c2)c(=O)cc1-c1cc(Cl)ccc1C#N (racemic) [Example 39, 4-({2-[4-(5-Chloro-2-cyanophenyl)-5-methoxy-2-oxopyridin-1(2H)-yl]-3-(5-cyclopropyl-1,3,4-oxadiazol-2-yl)propanoyl}amino)-2-fluorobenzamide]	70 nM	38 nM
N#Cc1ccc(Cl)cc1-c1cc(=O)n(C(C[C@@H]2CCCCO2)C(=O)Nc2ccc(C(N)=O)c(F)c2)cc1Cl (stereo partly shown) [Example 14]	25 nM	210 nM
COc1cn(C(Cc2coc(C)n2)C(=O)Nc2ccc(C(N)=O)c(F)c2)c(=O)cc1-c1cc(Cl)ccc1C#N (racemic) [Example 41, 4-({2-[4-(5-Chloro-2-cyanophenyl)-5-methoxy-2-oxopyridin-1(2H)-yl]-3-(2-methyl-1,3-oxazol-4-yl)-propanoyl}amino)-2-fluorobenzamide]	28 nM	21 nM
N#Cc1ccc(Cl)cc1-c1cc(=O)n(C(Cc2ccccn2)C(=O)Nc2ccc(C(N)=O)c(F)c2)cc1Cl (stereo not shown) [Example 13]	63 nM	110 nM
CNC(=O)c1ccc(NC(=O)C(C[C@@H]2CCCCO2)n2cc(Cl)c(-c3cc(Cl)ccc3C#N)cc2=O)cc1F (stereo partly shown) [Example 15]	28 nM	260 nM
COc1cn(C(Cc2cnco2)C(=O)Nc2ccc(C(N)=O)c(F)c2)c(=O)cc1-c1cc(Cl)ccc1C#N (single isomer, unassigned) [Example 45, 4-({2-[4-(5-Chloro-2-cyanophenyl)-5-methoxy-2-oxopyridin-1(2H)-yl]-3-(1,3-oxazol-5-yl)propanoyl}amino)-2-fluorobenzamide]	6.4 nM	4 nM
COc1cn(C(Cc2ccccn2)C(=O)Nc2ccc(C(N)=O)c(F)c2)c(=O)cc1-c1cc(Cl)ccc1F (stereo not shown) [Example 17]	290 nM	230 nM
CNC(=O)c1ccc(NC(=O)C(Cc2coc(C)n2)n2cc(OC)c(-c3cc(Cl)ccc3C#N)cc2=O)cc1F (racemic) [Example 47, 4-({2-[4-(5-Chloro-2-cyanophenyl)-5-methoxy-2-oxopyridin-1(2H)-yl]-3-(2-methyl-1,3-oxazol-4-yl)propanoyl}amino)-2-fluoro-N-methylbenzamide]	32 nM	24 nM
COc1cn(C(CCOC(C)(C)C)C(=O)Nc2ccc(C(N)=O)c(F)c2)c(=O)cc1-c1cc(Cl)ccc1C#N (racemic) [Example 21, 4-({4-tert-Butoxy-2-[4-(5-chloro-2-cyanophenyl)-5-methoxy-2-oxopyridin-1(2H)-yl]butanoyl}amino)-2-fluorobenzamide]	7.4 nM	6.8 nM
COc1cn(C(Cc2cocn2)C(=O)Nc2ccc(C(N)=O)c(F)c2)c(=O)cc1-c1cc(Cl)ccc1C#N (stereo not shown) [Example 3]	43 nM	33 nM
COc1cn(C(Cc2ccccn2)C(=O)Nc2ccc(C(N)=O)c(F)c2)c(=O)cc1-c1cc(Cl)ccc1C#N (single isomer, unassigned) [Example 28, 4-({2-[4-(5-Chloro-2-cyanophenyl)-5-methoxy-2-oxopyridin-1(2H)-yl]-3-(pyridin-2-yl)propanoyl}amino)-2-fluorobenzamide]	6.6 nM	4.8 nM
COc1cn(C(Cc2cc(C)on2)C(=O)Nc2ccc(C(N)=O)c(F)c2)c(=O)cc1-c1cc(Cl)ccc1C#N (racemic) [Example 37, 4-({2-[4-(5-Chloro-2-cyanophenyl)-5-methoxy-2-oxopyridin-1(2H)-yl]-3-(5-methyl-1,2-oxazol-3-yl)propanoyl}amino)-2-fluorobenzamide]	12 nM	6.2 nM
